Experimental findings from PubChem BioAssay (NCI) are described below.

Test systems include DU-145 prostate; HCT-15 colon; KM12 colon; MALME-3M melanoma; NCI-H23 lung; NCI/ADR-RES ovarian; OVCAR-8 ovarian; RPMI-8226 leukemia; SW-620 colon; T-47D breast.
What all share (assay): NCI tumour cell line growth inhibition, 48 h

Each structure is given as a SMILES string.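 Interpolation was linear, between the two tested concentrations surrounding the appropriate level; five concentrations were tested over 48 hours in 96-well plates. At the GI50, growth is halved. At the TGI there is no net growth.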 Bounds are passed on as bounds.

As for `COC(=O)[C@H]1CCCN1C(=O)[C@H]1CCCN1C(=O)[C@H](Cc1c[nH]c2ccccc12)NC(=S)Nc1cc(C(F)(F)F)cc(C(F)(F)F)c1`, the GI50 with DU-145 prostate was 6.53 µM; in the assay on HCT-15 colon, 6.26 µM; in the assay on KM12 colon, 4.47 µM; with MALME-3M melanoma, 14.9 µM; in the assay on NCI-H23 lung it was 7.22 µM; with NCI/ADR-RES ovarian, more than 100 µM. Besides, the GI50 in the assay on OVCAR-8 ovarian is 7.01 µM; in the assay on RPMI-8226 leukemia it was 5.24 µM; with SW-620 colon, 9.18 µM; with T-47D breast, 3.72 µM. The TGI in the assay on DU-145 prostate, in the assay with HCT-15 colon, with KM12 colon, in the assay on MALME-3M melanoma, with NCI-H23 lung and with NCI/ADR-RES ovarian was more than 100 µM throughout. The TGI in the assay on OVCAR-8 ovarian, in the assay on RPMI-8226 leukemia, with SW-620 colon and in the assay with T-47D breast was more than 100 µM in each case.

Consider `CCCCCCCCCCCC[n+]1ccc2ccccc2c1`, for which the GI50 with DU-145 prostate was 1.18 µM; in the assay with HCT-15 colon, 2.6 µM; in the assay on KM12 colon, 0.397 µM; in the assay with NCI-H23 lung, 0.646 µM; with NCI/ADR-RES ovarian, 9.37 µM; with OVCAR-8 ovarian, 0.654 µM. For the same molecule, the GI50 in the assay with RPMI-8226 leukemia was 0.295 µM; in the assay on SW-620 colon, 0.996 µM; in the assay on T-47D breast it was 0.406 µM. Also, the TGI in the assay with DU-145 prostate is 2.74 µM; in the assay with HCT-15 colon, 13.8 µM; in the assay on KM12 colon, 1.51 µM; in the assay on NCI-H23 lung it was 3.09 µM; with NCI/ADR-RES ovarian, 35.5 µM; in the assay on OVCAR-8 ovarian it was 2.34 µM. For the same molecule, the TGI in the assay with RPMI-8226 leukemia turned out to be 0.949 µM; in the assay with SW-620 colon, 2.56 µM; in the assay with T-47D breast it was 5.26 µM.

As for `C=C1C(=O)OC2/C=C(/C)C(OC(C)=O)C/C=C(\C)C(OC(=O)C3(C)OC3C)C(O)C12` (centres undefined), the TGI in the assay with DU-145 prostate, with HCT-15 colon, with KM12 colon, in the assay on NCI-H23 lung, with NCI/ADR-RES ovarian and in the assay with OVCAR-8 ovarian was more than 100 µM each time. The TGI in the assay with RPMI-8226 leukemia, in the assay with SW-620 colon and with T-47D breast was more than 100 µM in each case.

As for `COc1cc2c(=O)[nH]c3cc([N+](=O)[O-])ccc3c2cc1[N+](=O)[O-]`, the GI50 with DU-145 prostate was 4.63 µM; in the assay on HCT-15 colon, 7.29 µM; in the assay with KM12 colon, 4.67 µM; with MALME-3M melanoma it was 9.91 µM; with NCI-H23 lung, 3.69 µM; in the assay on NCI/ADR-RES ovarian it was 5.29 µM. In addition, the GI50 was 3.3 µM with OVCAR-8 ovarian, 3.81 µM with SW-620 colon and 3.52 µM in the assay with T-47D breast. In addition, the TGI with DU-145 prostate, in the assay with HCT-15 colon, with KM12 colon, in the assay with MALME-3M melanoma, with NCI-H23 lung and in the assay on NCI/ADR-RES ovarian was more than 100 µM each time. Also, the TGI is 88.1 µM in the assay on OVCAR-8 ovarian, more than 100 µM with SW-620 colon and more than 100 µM in the assay on T-47D breast.

Take `COc1cccc(/C=C2\COc3ccc(-c4ccccc4)cc3C2=O)c1`: the GI50 in the assay with DU-145 prostate is 2.05 µM; in the assay with HCT-15 colon, 1.78 µM; in the assay on MALME-3M melanoma, 2.53 µM; in the assay on NCI-H23 lung, 3.14 µM; with NCI/ADR-RES ovarian, 3.63 µM; with OVCAR-8 ovarian, 2.21 µM. The GI50 in the assay on SW-620 colon is 2.01 µM; in the assay on T-47D breast, 2.03 µM. Moreover, the TGI with DU-145 prostate worked out at 5.43 µM; in the assay on HCT-15 colon, 4.72 µM; with MALME-3M melanoma, 12.6 µM; with NCI-H23 lung it was 10 µM; with NCI/ADR-RES ovarian it was 14.5 µM; in the assay on OVCAR-8 ovarian, 6.14 µM. The results for the TGI in the assay with SW-620 colon and in the assay with T-47D breast were 4.54 µM and 4.98 µM, respectively.

In the case of `c1ccc2c3c([nH]c2c1)C(c1ccc(C2NCCc4c2[nH]c2ccccc42)cc1)NCC3` (centres undefined), the GI50 was 0.749 µM in the assay on DU-145 prostate; 0.429 µM in the assay with HCT-15 colon; 1.07 µM with KM12 colon; 1.55 µM with MALME-3M melanoma; 1.65 µM in the assay on NCI-H23 lung; 2.1 µM in the assay with NCI/ADR-RES ovarian. For the same molecule, the GI50 in the assay on RPMI-8226 leukemia was 0.34 µM; with SW-620 colon, 0.185 µM; with T-47D breast, 1.31 µM. Also, the TGI in the assay on DU-145 prostate amounted to 2.13 µM; with HCT-15 colon, 1.78 µM; in the assay on KM12 colon, 2.36 µM; in the assay with MALME-3M melanoma, 3.11 µM; in the assay with NCI-H23 lung, 3.36 µM; with NCI/ADR-RES ovarian it was 7.81 µM. Besides, the TGI in the assay with RPMI-8226 leukemia was determined as 1.09 µM; in the assay on SW-620 colon, 0.344 µM; with T-47D breast it was 3.06 µM.

Take `COc1ccc(/C(C#N)=C2C=C/C(=N/O)c3ccccc3\2)cc1`: the GI50 in the assay with DU-145 prostate is 0.34 µM; in the assay on HCT-15 colon, 0.168 µM; in the assay with KM12 colon, 0.175 µM; in the assay with NCI-H23 lung, 0.403 µM; in the assay with NCI/ADR-RES ovarian, 0.125 µM; in the assay with OVCAR-8 ovarian, 0.327 µM. In addition, the GI50 in the assay with RPMI-8226 leukemia was 0.371 µM; in the assay with SW-620 colon, 0.262 µM; in the assay on T-47D breast, 13.7 µM. Further, the TGI with DU-145 prostate amounted to 8.85 µM; with HCT-15 colon, 4.52 µM; in the assay with KM12 colon, 4.82 µM; with NCI-H23 lung, 14.4 µM; with NCI/ADR-RES ovarian it was 2.94 µM; with OVCAR-8 ovarian, 13.1 µM. In addition, the TGI is 9.76 µM in the assay with RPMI-8226 leukemia, 14.4 µM in the assay with SW-620 colon and 39.7 µM with T-47D breast.

In the case of `CCc1nc(N)nc(N)c1-c1ccc(N2CCNCC2)cc1`, the TGI in the assay on DU-145 prostate was more than 100 µM; in the assay with HCT-15 colon, more than 100 µM; with KM12 colon, more than 100 µM; in the assay with NCI-H23 lung, more than 97.3 µM; with NCI/ADR-RES ovarian, more than 100 µM; in the assay on OVCAR-8 ovarian it was more than 100 µM. For the same molecule, the TGI with RPMI-8226 leukemia is more than 90.5 µM; in the assay on SW-620 colon, more than 100 µM; in the assay with T-47D breast it was more than 100 µM.

Turning to `CC(=O)c1c(C)[nH]c(-c2nc3ccc(N4CCN(C)CC4)cc3[nH]2)c1-c1ccccc1`, the GI50 was 10.2 µM with DU-145 prostate; 0.719 µM in the assay on HCT-15 colon; 1.84 µM in the assay with KM12 colon; 0.961 µM in the assay on MALME-3M melanoma; 3.02 µM with NCI-H23 lung; 2.48 µM in the assay with NCI/ADR-RES ovarian. Moreover, the GI50 in the assay with OVCAR-8 ovarian is 3.08 µM; in the assay on SW-620 colon, 3.82 µM; with T-47D breast, 0.703 µM. For the same molecule, the TGI with DU-145 prostate was 47 µM; in the assay on HCT-15 colon it was 18.9 µM; in the assay with KM12 colon, 32.6 µM; in the assay with MALME-3M melanoma, 12.7 µM; in the assay on NCI-H23 lung, 39.3 µM; in the assay on NCI/ADR-RES ovarian, more than 100 µM. For the same molecule, the values for the TGI in the assay on OVCAR-8 ovarian, in the assay with SW-620 colon and in the assay with T-47D breast were more than 100 µM, 24.8 µM and 36.1 µM, respectively.
